Read-outs that look alike come from different tables or passages of the source.
Columns and labels:
CAI = biological target: T1, CAI (Homo sapiens, UniProt P00915); test: biochemical; assay type: binding; conditions: for Intrinsic Gibbs energy change (ΔGint), CAI: 37 °C, calculated (Equation 5); for Kd: FTSA, pH 7.0, 37 °C, read-out: Observed Dissociation Constant (Kd_obs), CAI
T1 construct: made in house; host or cells: E. coli
Procedure: (§1) Human CA isozymes were expressed in E. coli (CAI, II, III, IV, VA, VB, VII, XII, XIII, XIV) or mammalian cells (CAVI and CAIX), chromatographically purified following the published protocols [47], and stored at −80 °C. The protein concentration was determined by UV absorption at 280 nm using Beer–Lambert law.
(§2) The QIAGEN Rotor-Gene Q was used to carry out the experiments, with a blue channel used for excitation (365 nm) and detection (460 nm). FTSA in this case relies on an extrinsic probe, 8-anilino-1-naphthalenesulfonate (ANS), to detect the fluorescence increase during protein denaturation, from which protein melting temperature (Tm) can be determined. […] The observed affinity of ligands for CAs was determined by plotting the Tm as a function of ligand concentration and then fitting a curve as described previously [48]. […] Samples were heated from 25 °C to 99 °C at the speed of 1 °C/min.
(§3) The intrinsic thermodynamic parameters were calculated as described in [40]. The intrinsic reaction of inhibitor binding to CA is shown in Equation (1).
(§4) When calculating Kd_int values, these protein and ligand fractions from Equation (1) have to be accounted for (Equations (2) and (3)). The intrinsic dissociation constant is calculated by multiplying Kd_obs value by the corresponding fractions of protein and ligand (Equation (4)). (2) fRSO2NH^−=10^pH−pKa_RSO2NH2/1+10^pH−pKa_RSO2NH2 (3) fCAZnH2O=1−10^pH−pKa_CAZnH2O/1+10^pH−pKa_CAZnH2O (4) Kd_int=Kd_obs×fRSO2NH^−×fCAZnH2O (5) ΔGint0=RTlnKd_int
(§5) The intrinsic standard Gibbs energy changes upon binding were calculated using Equation (5). Here, R—universal ideal gas constant (8.3144 J/mol·K), T—absolute temperature (310.15 K).

CAII = biological target: T2, CAII (Homo sapiens, UniProt P00918); test: biochemical; assay type: binding; conditions: for Intrinsic Gibbs energy change (ΔGint), CAII: 37 °C, calculated (Equation 5); for Kd: FTSA, pH 7.0, 37 °C, read-out: Observed Dissociation Constant (Kd_obs), CAII
T2 construct: made in house; host or cells: E. coli
Procedure: as §1, §2, §3, §4, §5

CAIII = biological target: T3, CAIII (Homo sapiens, UniProt P07451); test: Fluorescent thermal shift assay (FTSA), CAIII; assay type: binding; conditions: for Intrinsic Gibbs energy change (ΔGint), CAIII: 37 °C, calculated (Equation 5); for Kd: FTSA, pH 7.0, 37 °C, read-out: Observed Dissociation Constant (Kd_obs), CAIII
T3 construct: made in house; host or cells: E. coli
Procedure: as §1, §2
(§6) The intrinsic thermodynamic parameters were calculated as described in [40]. The intrinsic reaction of inhibitor binding to CA is shown in Equation (1). […] It is known that CA proteins bind sulfonamides only when water molecules are coordinated to the Zn(II) ion, and sulfonamides only bind to CA proteins when their amino group is deprotonated (confirmed by neutron crystallography [53, 54, 55]):(1) CA Zn^II−H2O+RSO2NH^−⇄ CA Zn^II−NH SO2R+H2O
as §4, §5

CAIV = biological target: T4, CAIV (Homo sapiens, UniProt P22748); test: Fluorescent thermal shift assay (FTSA), CAIV; assay type: binding; conditions: for Intrinsic Gibbs energy change (ΔGint), CAIV: 37 °C, calculated (Equation 5); for Kd: FTSA, pH 7.0, 37 °C, read-out: Observed Dissociation Constant (Kd_obs), CAIV;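 for all read-outs here: recombinant human enzyme, thermal denaturation followed by ANS fluorescence, melting temperature versus ligand concentration fitted for Kd_obs, intrinsic value corrected for deprotonated sulfonamide and Zn-bound water fractions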
T4 construct: made in house; host or cells: E. coli
Procedure: as §1, §2, §6, §4, §5

CAVA = biological target: T5, CAVA (Homo sapiens, UniProt P35218); test: Fluorescent thermal shift assay (FTSA), CAVA; assay type: binding; conditions: for Kd: FTSA, pH 7.0, 37 °C, read-out: Observed Dissociation Constant (Kd_obs), CAVA
T5 construct: made in house; host or cells: E. coli
Procedure: as §1, §2, §6, §4, §5

CAVB = biological target: T6, CAVB (Homo sapiens, UniProt Q9Y2D0); test: Fluorescent thermal shift assay (FTSA), CAVB; assay type: binding; conditions: for Intrinsic Gibbs energy change (ΔGint), CAVB: 37 °C, calculated (Equation 5); for Kd: FTSA, pH 7.0, 37 °C, read-out: Observed Dissociation Constant (Kd_obs), CAVB
T6 construct: made in house; host or cells: E. coli
Procedure: as §1, §2, §6, §4, §5

CAVI = biological target: T7, CAVI (Homo sapiens, UniProt P23280); test: Fluorescent thermal shift assay (FTSA), CAVI; assay type: binding; conditions: for Intrinsic Gibbs energy change (ΔGint), CAVI: 37 °C, calculated (Equation 5); for Kd: FTSA, pH 7.0, 37 °C, read-out: Observed Dissociation Constant (Kd_obs), CAVI;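 for all read-outs here: human CAVI expressed in mammalian cells, ANS fluorescence tracked during thermal unfolding, melting temperature fitted against ligand concentration, intrinsic values corrected for deprotonated sulfonamide and Zn-bound water fractions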
T7 construct: made in house
Procedure: as §1, §2, §6, §4, §5

CAVII = biological target: T8, CAVII (Homo sapiens, UniProt P43166); test: Fluorescent thermal shift assay (FTSA), CAVII; assay type: binding; conditions: for Intrinsic Gibbs energy change (ΔGint), CAVII: 37 °C, calculated (Equation 5); for Kd: FTSA, pH 7.0, 37 °C, read-out: Observed Dissociation Constant (Kd_obs), CAVII
T8 construct: made in house; host or cells: E. coli
Procedure: as §1, §2, §6, §4, §5

CAIX = biological target: T9, CAIX (Homo sapiens, UniProt Q16790); test: biochemical; assay type: binding; conditions: for Intrinsic Gibbs energy change (ΔGint), CAIX: 37 °C, calculated (Equation 5); for Kd: FTSA, pH 7.0, 37 °C, read-out: Observed Dissociation Constant (Kd_obs), CAIX
T9 construct: made in house
Procedure: as §1, §2, §3, §4, §5

CAXII = biological target: T10, CAXII (Homo sapiens, UniProt O43570); test: biochemical; assay type: binding; conditions: for Intrinsic Gibbs energy change (ΔGint), CAXII: 37 °C, calculated (Equation 5); for Kd: FTSA, pH 7.0, 37 °C, read-out: Observed Dissociation Constant (Kd_obs), CAXII
T10 construct: made in house; host or cells: E. coli
Procedure: as §1, §2, §3, §4, §5

CAXIV = biological target: T11, CAXIV (Homo sapiens, UniProt Q9ULX7); test: Fluorescent thermal shift assay (FTSA), CAXIV; assay type: binding; conditions: for Intrinsic Gibbs energy change (ΔGint), CAXIV: 37 °C, calculated (Equation 5); for Kd: FTSA, pH 7.0, 37 °C, read-out: Observed Dissociation Constant (Kd_obs), CAXIV;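 for all read-outs here: recombinant human CA XIV from E. coli, ANS-based thermal shift: Kd_obs fitted from melting temperature versus ligand concentration, ΔGint from Kd_obs corrected for deprotonated sulfonamide and Zn-water fractions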
T11 construct: made in house; host or cells: E. coli
Procedure: as §1, §2, §6, §4, §5

[1] = Determination of compound sulfonamide group pKa (UV-Vis spectra at different pH); assay type: physicochemical
Procedure: To calculate the intrinsic thermodynamic parameters of compound binding to CA isozymes, the pKa values of the sulfonamide group and the water molecule bound to the Zn(II) ion at the active site of CA proteins had to be determined. The pKa values for CA isozyme-bound water molecules were taken from, CAI—8.1; CAII—6.9; CAIII—6.5; CAIV—6.6; CAVA—6.7; CAVB—7.0; CAVI—6.0; CAVII—6.8; CAIX—6.6; CAXII—6.8; CAXIII—8.0; CAXIV—6.1. […] The pKa values were calculated as described previously in [28, 52] by normalizing the absorbance, plotting it as a function of pH, then fitting to the Henderson–Hasselbalch equation using the least square method (Figure S105).
Since the pKa values were only able to be measured for compound group 26–36, due to universal buffer pH limitations, intrinsic thermodynamic parameters were not calculated for compounds 2(a,b)–25(a,b), only for compounds 26–36 using experimentally obtained pKa values when possible and using the average pKa value mentioned above for compounds not measured.

CAXIII [2] = biological target: T12, CAXIII (Homo sapiens, UniProt Q8N1Q1); conditions: 37 °C; calculated (Equation 5);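 note: recombinant human CAXIII melting temperature tracked by ANS fluorescence in thermal shift assay, Tm fitted against ligand concentration, intrinsic value corrects Kd for deprotonated sulfonamide and Zn-bound water fractions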
Procedure: as §1, §2, §3, §4, §5

CAXIII [3] = biological target: T12, CAXIII; test: biochemical; conditions: Observed Dissociation Constant (Kd_obs), FTSA, pH 7.0, 37 °C
Procedure: as §1, §2, §3, §4, §5

[4] = universal buffer, spectrophotometric, 37 °C, read-out: Sulfonamide pKa
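Throughout, for Observed Dissociation Constant (Kd obs), CAXII: recombinant CAXII made in E. coli, ANS-fluorescence thermal shift with affinity fitted from Tm versus ligand concentration, intrinsic energy from Kd_obs corrected for deprotonated sulfonamide and Zn-water fractions.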

T1 sequence (P00915 whole entry): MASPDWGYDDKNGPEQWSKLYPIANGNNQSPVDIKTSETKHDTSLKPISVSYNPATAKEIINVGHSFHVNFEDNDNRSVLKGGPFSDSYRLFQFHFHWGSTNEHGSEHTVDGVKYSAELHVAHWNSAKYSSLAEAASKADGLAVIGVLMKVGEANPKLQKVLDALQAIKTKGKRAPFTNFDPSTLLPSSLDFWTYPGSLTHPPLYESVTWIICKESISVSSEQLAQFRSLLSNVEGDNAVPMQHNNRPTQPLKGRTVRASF
T7 sequence (P23280 21-290 limits assumed): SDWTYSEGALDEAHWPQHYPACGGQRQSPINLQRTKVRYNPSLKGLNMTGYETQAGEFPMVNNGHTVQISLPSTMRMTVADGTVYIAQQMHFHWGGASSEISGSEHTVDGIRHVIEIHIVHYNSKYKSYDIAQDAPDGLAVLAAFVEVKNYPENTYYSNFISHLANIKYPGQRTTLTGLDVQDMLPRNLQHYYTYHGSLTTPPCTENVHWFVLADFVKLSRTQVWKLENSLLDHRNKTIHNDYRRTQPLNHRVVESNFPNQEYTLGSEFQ
T6 sequence (Q9Y2D0 34-317): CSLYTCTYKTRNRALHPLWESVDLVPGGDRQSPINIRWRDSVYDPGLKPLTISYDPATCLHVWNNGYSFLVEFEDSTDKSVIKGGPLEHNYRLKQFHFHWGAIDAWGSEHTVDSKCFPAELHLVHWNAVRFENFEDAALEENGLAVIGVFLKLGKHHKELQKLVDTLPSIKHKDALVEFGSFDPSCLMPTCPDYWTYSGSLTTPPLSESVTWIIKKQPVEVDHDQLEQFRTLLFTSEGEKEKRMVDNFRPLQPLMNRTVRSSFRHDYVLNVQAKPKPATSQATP
T4 sequence (P22748 19-312): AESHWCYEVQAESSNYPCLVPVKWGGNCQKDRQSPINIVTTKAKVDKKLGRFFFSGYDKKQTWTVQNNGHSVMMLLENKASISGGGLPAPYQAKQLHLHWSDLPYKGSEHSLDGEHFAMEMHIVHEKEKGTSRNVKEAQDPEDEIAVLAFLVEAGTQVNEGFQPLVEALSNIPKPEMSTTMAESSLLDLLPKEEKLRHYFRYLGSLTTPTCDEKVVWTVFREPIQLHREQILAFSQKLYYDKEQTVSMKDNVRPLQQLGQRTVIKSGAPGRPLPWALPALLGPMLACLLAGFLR
T5 sequence (P35218 39-305): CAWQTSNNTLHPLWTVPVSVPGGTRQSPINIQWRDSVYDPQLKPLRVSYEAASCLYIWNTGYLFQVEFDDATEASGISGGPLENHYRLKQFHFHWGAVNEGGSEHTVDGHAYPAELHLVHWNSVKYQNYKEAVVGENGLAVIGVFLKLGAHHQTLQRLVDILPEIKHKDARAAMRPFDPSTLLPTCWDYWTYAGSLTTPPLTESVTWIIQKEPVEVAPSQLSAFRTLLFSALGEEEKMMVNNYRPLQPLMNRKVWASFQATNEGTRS
T3 sequence (P07451 whole entry): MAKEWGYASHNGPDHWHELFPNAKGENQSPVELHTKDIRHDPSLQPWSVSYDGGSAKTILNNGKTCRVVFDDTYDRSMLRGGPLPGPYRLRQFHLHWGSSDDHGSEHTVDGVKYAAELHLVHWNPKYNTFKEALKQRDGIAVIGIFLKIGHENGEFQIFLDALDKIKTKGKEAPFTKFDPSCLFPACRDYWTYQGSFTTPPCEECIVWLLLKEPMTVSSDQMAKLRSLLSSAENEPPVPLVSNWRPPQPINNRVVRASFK
T12 sequence (Q8N1Q1 whole entry): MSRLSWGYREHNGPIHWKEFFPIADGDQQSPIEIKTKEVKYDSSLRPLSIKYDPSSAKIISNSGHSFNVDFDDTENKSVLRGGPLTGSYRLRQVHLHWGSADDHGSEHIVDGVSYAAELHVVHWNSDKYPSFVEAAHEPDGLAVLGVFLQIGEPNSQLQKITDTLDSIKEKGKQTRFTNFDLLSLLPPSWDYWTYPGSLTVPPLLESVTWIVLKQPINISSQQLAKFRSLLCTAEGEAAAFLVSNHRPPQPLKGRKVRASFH
T10 sequence (O43570 25-354): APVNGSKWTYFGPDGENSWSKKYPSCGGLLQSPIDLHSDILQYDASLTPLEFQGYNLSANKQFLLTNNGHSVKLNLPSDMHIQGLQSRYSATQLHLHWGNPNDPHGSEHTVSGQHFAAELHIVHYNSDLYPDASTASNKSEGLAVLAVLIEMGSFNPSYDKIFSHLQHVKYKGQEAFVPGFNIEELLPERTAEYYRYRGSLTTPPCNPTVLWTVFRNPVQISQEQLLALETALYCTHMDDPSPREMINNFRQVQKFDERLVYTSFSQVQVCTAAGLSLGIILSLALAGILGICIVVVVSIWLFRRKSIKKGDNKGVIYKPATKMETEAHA
T8 sequence (P43166 whole entry): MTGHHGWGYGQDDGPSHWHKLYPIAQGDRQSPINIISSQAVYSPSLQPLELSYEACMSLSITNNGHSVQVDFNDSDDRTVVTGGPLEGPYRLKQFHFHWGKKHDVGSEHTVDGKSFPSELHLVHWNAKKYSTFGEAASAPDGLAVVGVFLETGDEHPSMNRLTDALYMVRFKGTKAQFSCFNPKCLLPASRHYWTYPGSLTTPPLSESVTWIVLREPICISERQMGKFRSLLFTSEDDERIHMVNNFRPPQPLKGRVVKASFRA
T11 sequence (Q9ULX7 16-337): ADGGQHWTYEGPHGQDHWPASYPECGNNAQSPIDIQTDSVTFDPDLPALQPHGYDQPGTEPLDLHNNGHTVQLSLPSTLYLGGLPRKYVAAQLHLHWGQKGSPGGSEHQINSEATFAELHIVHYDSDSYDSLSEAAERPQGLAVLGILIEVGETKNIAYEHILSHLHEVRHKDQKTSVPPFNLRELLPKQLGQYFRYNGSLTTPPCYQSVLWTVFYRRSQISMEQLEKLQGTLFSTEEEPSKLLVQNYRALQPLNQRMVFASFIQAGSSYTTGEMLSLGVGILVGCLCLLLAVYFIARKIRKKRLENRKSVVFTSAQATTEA

SMILES | Intrinsic Gibbs energy change (ΔGint), CAI (CAI) [kcal/mol] | Kd (CAI) [nM] | Intrinsic Gibbs energy change (ΔGint), CAII (CAII) [kcal/mol] | Kd (CAII) [nM] | Kd (CAIII) [nM] | Intrinsic Gibbs energy change (ΔGint), CAIV (CAIV) [kcal/mol] | Kd (CAIV) [nM] | Kd (CAVA) [nM] | Intrinsic Gibbs energy change (ΔGint), CAVB (CAVB) [kcal/mol] | Kd (CAVB) [nM] | Intrinsic Gibbs energy change (ΔGint), CAVI (CAVI) [kcal/mol] | Kd (CAVI) [nM] | Intrinsic Gibbs energy change (ΔGint), CAVII (CAVII) [kcal/mol] | Kd (CAVII) [nM] | Intrinsic Gibbs energy change (ΔGint), CAIX (CAIX) [kcal/mol] | Kd (CAIX) [nM] | Kd (CAXII) [nM] | Kd (CAXIV) [nM] | melting point [°C] | Kd (CAXIII [3]) [nM] | other results
Cc1csc(N(CCC(=O)O)c2ccc(S(N)(=O)=O)cc2)n1 [Compound 27, 3-((4-Methylthiazol-2-yl)(4-sulfamoylphenyl)amino)propanoic acid] | -15 | 67 | -14.7 | 220 | 63000 | -13.9 | 1400 | ≥ 200000 | -14.1 | 560 | -13 | 18000 | -14.7 | 250 | -16 | 48 | 180 | 170 | 162 to 163 | 870 | Intrinsic Gibbs energy change (ΔGint), CAIII (CAIII): -11.6 kcal/mol; Intrinsic Gibbs energy change (ΔGint), CAXII (CAXII): -15 kcal/mol; Intrinsic Gibbs energy change (ΔGint), CAXIV (CAXIV): -15.8 kcal/mol; pKa [1, 4]: 10.4; Intrinsic Gibbs energy change (ΔGint), CAXIII (CAXIII [2]): -13.5 kcal/mol
Cc1csc(N(CCC(=O)NN)c2ccc(S(N)(=O)=O)cc2)n1 [Compound 29, 4-((3-Hydrazineyl-3-oxopropyl)(4-methylthiazol-2-yl)amino)benzenesulfonamide] | -14.4 | 150 | -14.3 | 380 | ≥ 200000 | -13.7 | 1500 | ≥ 200000 | -15.2 | 77 | -12.8 | 20000 | -14 | 670 | -15.5 | 80 | 830 | 130 | 167 to 168 | 1700 | Intrinsic Gibbs energy change (ΔGint), CAXII (CAXII): -13.9 kcal/mol; Intrinsic Gibbs energy change (ΔGint), CAXIV (CAXIV): -15.8 kcal/mol; pKa [1, 4]: 10.3; Intrinsic Gibbs energy change (ΔGint), CAXIII (CAXIII [2]): -12.9 kcal/mol
Cc1csc(N(CCC(=O)NN=Cc2ccccc2)c2ccc(S(N)(=O)=O)cc2)n1 [Compound 30, 4-((3-(2-Benzylidenehydrazineyl)-3-oxopropyl)(4-methylthiazol-2-yl)amino)benzenesulfonamide] |  | 3300 |  | 4000 | ≥ 200000 |  | 27000 | ≥ 200000 |  | 11000 |  | 67000 |  | 100000 |  | 290 | 110000 | 6700 | 170 to 171 | 8300 | 
CCOC(=O)c1sc(N(CCC(=O)NN)c2ccc(S(N)(=O)=O)cc2)nc1C [Compound 33] | -12.2 | 3100 | -13.8 | 500 | ≥ 200000 | -13 | 2800 | ≥ 200000 | -14.7 | 100 | -12.4 | 25000 | -13.4 | 1100 | -14 | 630 | 26000 | 910 | 206 to 207 | 830 | Intrinsic Gibbs energy change (ΔGint), CAXII (CAXII): -11.5 kcal/mol; Intrinsic Gibbs energy change (ΔGint), CAXIV (CAXIV): -14.3 kcal/mol; pKa ([1]; value marked *: average of measured compounds, used for calculation, read-out: Sulfonamide pKa (not determined, average of all measured compounds)): 10.1; Intrinsic Gibbs energy change (ΔGint), CAXIII (CAXIII [2]): -13.1 kcal/mol
CCOC(=O)c1sc(N(CCC(=O)NN=Cc2ccccc2)c2ccc(S(N)(=O)=O)cc2)nc1C [Compound 34, Ethyl 2-((3-(2-Benzylidenehydrazineyl)-3-oxopropyl)(4-sulfamoylphenyl)amino)-4-methylthiazole-5-carboxylate] |  | 670 |  | 150 | ≥ 200000 |  | 1000 | ≥ 200000 |  | 120 |  | 10000 |  | 250 |  | 170 | 14000 | 1000 | 195 to 196 | 220 | 
NS(=O)(=O)c1ccc(N(CCC(=O)O)c2nc(-c3ccc(Cl)cc3)c(Cl)s2)cc1 [Compound 36, 3-((5-Chloro-4-(4-chlorophenyl)thiazol-2-yl)(4-sulfamoylphenyl)amino)propanoic acid] | -15.5 | 20 | -15.5 | 23 to 40 | 17000 | -13.1 | 3300 | ≥ 200000 | -14 | 400 | -13.4 | 6300 | -15.7 | 33 | -16.1 | 23 | 120 |  |  | 23 to 40 | Intrinsic Gibbs energy change (ΔGint), CAIII (CAIII): -12.2 kcal/mol; Intrinsic Gibbs energy change (ΔGint), CAVA (CAVA; 37 °C, calculated (Equation 5)): ≤ -10.4 kcal/mol; Intrinsic Gibbs energy change (ΔGint), CAXII (CAXII): -14.9 kcal/mol; Intrinsic Gibbs energy change (ΔGint), CAXIV (CAXIV): -15.6 kcal/mol; pKa [1, 4]: 10.2; Intrinsic Gibbs energy change (ΔGint), CAXIII (CAXIII [2]): -15.1 kcal/mol
